From PubChem BioAssay AID330 (DTP/NCI, 2004)
Several values for one entry are separate records, joined by “and”; a condition that tells them apart may be missing. Identical values can stand only once. Inconclusive results and toxic doses are left out. How the source made its calls: active means survival T/C of 150% or more; inactive means T/C below 125% in these data. Peptide text beside a SMILES is read from it.

System: P388 leukemia ip, CD2F1 mice, survival T/C
Assay: NCI In Vivo Anticancer Drug Screen. Data for tumor model P388 Leukemia (intraperitoneal) in CD2F1 (CDF1) mice
Settings: endpoint: median survival time, higher = longer survival
Procedure, shortened: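 Mice carrying the transplanted tumor received test compound or vehicle. Survival was recorded in each group, and the value is the treated-group measurement divided by that of the vehicle-treated control group.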

[1] = dose: 60.0 mg/kg/injection, schedule: Q01DX005 (ip), vehicle: saline with Tween-80
[2] = dose: 100.0 mg/kg/injection, schedule: Q04DX003 (ip), vehicle: saline with Tween-80
[3] = dose: 200.0 mg/kg/injection, schedule: Q04DX003 (ip), vehicle: saline with Tween-80
[4] = dose: 120.0 mg/kg/injection, schedule: Q01DX005 (ip), vehicle: saline with Tween-80
[5] = dose: 240.0 mg/kg/injection, schedule: Q01DX005 (ip), vehicle: saline with Tween-80
[6] = dose: 50.0 mg/kg/injection, schedule: Q01DX005 (ip), vehicle: saline with Tween-80
[7] = dose: 100.0 mg/kg/injection, schedule: Q01DX005 (ip), vehicle: saline with Tween-80
[8] = dose: 0.39 mg/kg/injection, schedule: Q01DX009 (ip), vehicle: saline

Measured: T/C

C[Se]C([Se]C)=C([Se]C)[Se]C
inactive: dose: 15.0 mg/kg/injection, schedule: Q01DX005 (ip), vehicle: saline with Tween-80 107 % of control | dose: 30.0 mg/kg/injection, schedule: Q01DX005 (ip), vehicle: saline with Tween-80 108 % of control | [1] 100 % of control and 91 % of control

O=c1[nH]c2ccccc2nc1/C=C(\O)c1ccc([N+](=O)[O-])cc1
inactive: dose: 7.5 mg/kg/injection, schedule: Q01DX005 (ip), vehicle: Klucel + Tween-80 100 % of control | dose: 15.0 mg/kg/injection, schedule: Q01DX005 (ip), vehicle: Klucel + Tween-80 89 % of control | dose: 30.0 mg/kg/injection, schedule: Q01DX005 (ip), vehicle: Klucel + Tween-80 86 % of control

COc1ccc(S(N)(=O)=O)cc1[N+](=O)[O-]
inactive: dose: 100.0 mg/kg/injection, schedule: Q04DX003 (ip), vehicle: Klucel (hydroxypropylcellulose) (HPC) 97 % of control | dose: 200.0 mg/kg/injection, schedule: Q04DX003 (ip), vehicle: Klucel (hydroxypropylcellulose) (HPC) 104 % of control | dose: 400.0 mg/kg/injection, schedule: Q04DX003 (ip), vehicle: Klucel (hydroxypropylcellulose) (HPC) 97 % of control

OCC1OC(n2cnc3cc(Cl)c(Cl)cc32)C(O)C1O (stereo unspecified)
inactive: dose: 8.0 mg/kg/injection, schedule: Q03HX024 (ip), vehicle: saline with Tween-80 96 % of control | dose: 16.0 mg/kg/injection, schedule: Q03HX024 (ip), vehicle: saline with Tween-80 99 % of control | dose: 20.0 mg/kg/injection, schedule: Q04DX003 (ip), vehicle: other 95 % of control | dose: 20.0 mg/kg/injection, schedule: Q04DX003 (oral), vehicle: other 103 % of control | dose: 25.0 mg/kg/injection, schedule: Q01DX009 (ip), vehicle: saline with Tween-80 93 % of control | dose: 32.0 mg/kg/injection, schedule: Q03HX024 (ip), vehicle: saline with Tween-80 114 % of control and 116 % of control | dose: 40.0 mg/kg/injection, schedule: Q04DX003 (ip), vehicle: other 100 % of control | dose: 40.0 mg/kg/injection, schedule: Q04DX003 (oral), vehicle: other 100 % of control | dose: 50.0 mg/kg/injection, schedule: Q01DX009 (ip), vehicle: saline with Tween-80 106 % of control | dose: 80.0 mg/kg/injection, schedule: Q04DX003 (ip), vehicle: other 95 % of control | dose: 80.0 mg/kg/injection, schedule: Q04DX003 (oral), vehicle: other 103 % of control | dose: 100.0 mg/kg/injection, schedule: Q01DX009 (ip), vehicle: saline with Tween-80 123 % of control | dose: 160.0 mg/kg/injection, schedule: Q04DX003 (ip), vehicle: other 110 % of control | dose: 160.0 mg/kg/injection, schedule: Q04DX003 (oral), vehicle: other 100 % of control | dose: 320.0 mg/kg/injection, schedule: Q04DX003 (ip), vehicle: other 119 % of control | dose: 320.0 mg/kg/injection, schedule: Q04DX003 (oral), vehicle: other 107 % of control | dose: 640.0 mg/kg/injection, schedule: Q04DX003 (oral), vehicle: other 100 % of control
active: dose: 200.0 mg/kg/injection, schedule: Q01DX009 (ip), vehicle: saline with Tween-80 160 % of control

CCn1c2ccccc2c2cc(/C=N/Nc3cc(C)nc4cc5c(cc34)OCO5)ccc21
inactive: dose: 50.0 mg/kg/injection, schedule: Q01DX005 (ip), vehicle: Klucel (hydroxypropylcellulose) (HPC) 100 % of control | dose: 100.0 mg/kg/injection, schedule: Q01DX005 (ip), vehicle: Klucel (hydroxypropylcellulose) (HPC) 89 % of control

NS(=O)(=O)c1ccc(Cl)c(Cl)c1
inactive: [2] 90 % of control | [3] 90 % of control | dose: 400.0 mg/kg/injection, schedule: Q04DX003 (ip), vehicle: saline with Tween-80 90 % of control

NC(Cc1ccc(OC2c3ccccc3-c3ccccc32)cc1)C(=O)O (stereo unspecified)
inactive: dose: 50.0 mg/kg/injection, schedule: Q01DX009 (ip), vehicle: saline 100 % of control | dose: 100.0 mg/kg/injection, schedule: Q01DX009 (ip), vehicle: saline 91 % of control | dose: 200.0 mg/kg/injection, schedule: Q01DX009 (ip), vehicle: saline 87 % of control

COc1ccccc1/C=N/Nc1ccc2ccccc2n1
inactive: dose: 50.0 mg/kg/injection, schedule: Q04DX003 (ip), vehicle: saline with Tween-80 93 % of control | [2] 90 % of control | [3] 90 % of control

O=c1oc2ccccc2cc1-n1nnc2ccccc21
inactive: [1] 98 % of control | [4] 90 % of control | [5] 90 % of control

[B-][N+](C)(C)C
inactive: [6] 98 % of control | [7] 98 % of control

COc1cc(/C=C\C=O)cc(OC)c1OC
inactive: dose: 100.0 mg/kg/injection, schedule: Q04DX002 (ip), vehicle: saline with Tween-80 99 % of control | dose: 200.0 mg/kg/injection, schedule: Q04DX002 (ip), vehicle: saline with Tween-80 110 % of control | dose: 400.0 mg/kg/injection, schedule: Q04DX002 (ip), vehicle: saline with Tween-80 108 % of control

COC(=O)C(CCCN=C(N)N)NC(=O)C(N)CCCCN (stereo not drawn) (H-Lys-Arg-OMe; configuration not given here)
inactive: [1] 100 % of control | [4] 100 % of control | [5] 100 % of control

CC[CH](C)[Sn](=[O])[c]1ccccc1 (stereo unspecified)
active: dose: 3.12 mg/kg/injection, schedule: Q01DX009 (ip), vehicle: saline with Tween-80 153 % of control
inactive: [8] 101 % of control | dose: 0.79 mg/kg/injection, schedule: Q01DX009 (ip), vehicle: saline 117 % of control

CN(C)c1ccc(/C=C\c2cccc[n+]2C)cc1
inactive: [8] 99 % of control and 100 % of control | dose: 0.78 mg/kg/injection, schedule: Q01DX009 (ip), vehicle: saline 100 % of control and 106 % of control | dose: 1.56 mg/kg/injection, schedule: Q01DX009 (ip), vehicle: saline 100 % of control and 105 % of control | dose: 3.12 mg/kg/injection, schedule: Q01DX009 (ip), vehicle: saline 109 % of control and 114 % of control

O=S(=O)(O)O.[NH-]C(c1ccccc1)C([NH-])c1ccccc1.[Pt+2] (stereo unspecified)
inactive: dose: 1.56 mg/kg/injection, schedule: Q04DX002 (ip), vehicle: saline 110 % of control
active: dose: 6.25 mg/kg/injection, schedule: Q04DX002 (ip), vehicle: saline 163 % of control | dose: 12.5 mg/kg/injection, schedule: Q04DX002 (ip), vehicle: saline 157 % of control and 173 % of control | dose: 25.0 mg/kg/injection, schedule: Q04DX002 (ip), vehicle: saline 153 % of control and 169 % of control and 185 % of control

Oc1ccc([C@H]2Oc3c(c(O)cc4c3C3c5c(O)cc(O)cc5OC(c5ccc(O)cc5)(O4)[C@H]3O)CC2O)cc1 (stereo partly specified)
inactive: dose: 1.0 mg/kg/injection, schedule: Q01DX005 (ip), vehicle: Klucel (hydroxypropylcellulose) (HPC) 103 % of control | dose: 2.0 mg/kg/injection, schedule: Q01DX005 (ip), vehicle: Klucel (hydroxypropylcellulose) (HPC) 103 % of control | dose: 4.0 mg/kg/injection, schedule: Q01DX005 (ip), vehicle: Klucel (hydroxypropylcellulose) (HPC) 110 % of control | dose: 8.0 mg/kg/injection, schedule: Q01DX005 (ip), vehicle: Klucel (hydroxypropylcellulose) (HPC) 103 % of control

O=C(O)CSc1cc2c3ccccc3sc2c2ccccc12
inactive: dose: 40.0 mg/kg/injection, schedule: Q01DX005 (ip), vehicle: Klucel (hydroxypropylcellulose) (HPC) 100 % of control | dose: 80.0 mg/kg/injection, schedule: Q01DX005 (ip), vehicle: Klucel (hydroxypropylcellulose) (HPC) 107 % of control | dose: 160.0 mg/kg/injection, schedule: Q01DX005 (ip), vehicle: Klucel (hydroxypropylcellulose) (HPC) 106 % of control

COc1cc2c(cc1C/C=C/c1ccccc1)OCO2
inactive: [6] 105 % of control | [7] 109 % of control | dose: 200.0 mg/kg/injection, schedule: Q01DX005 (ip), vehicle: saline with Tween-80 112 % of control

Nc1ccccc1C(=O)CCc1c[nH]c2ccccc12
inactive: [1] 96 % of control | [4] 90 % of control | [5] 86 % of control

Cc1cccc(/C=N/Nc2ccc3ccccc3n2)n1
inactive: dose: 6.25 mg/kg/injection, schedule: Q01DX005 (ip), vehicle: Klucel (hydroxypropylcellulose) (HPC) 102 % of control | dose: 12.5 mg/kg/injection, schedule: Q01DX005 (ip), vehicle: Klucel (hydroxypropylcellulose) (HPC) 95 % of control | dose: 25.0 mg/kg/injection, schedule: Q01DX005 (ip), vehicle: Klucel (hydroxypropylcellulose) (HPC) 96 % of control

COC1=CC(=O)C(OC)=C(c2c[nH]c3ccccc23)C1=O
inactive: [1] 95 % of control | [4] 87 % of control | [5] 97 % of control

O=c1[nH]nc(Sc2ccccc2)c2nncn12
inactive: [6] 100 % of control | [7] 92 % of control
